Where “and” joins values, the source holds several entries; their conditions need not be identical. Equal values may be shown once. Entries after “also recorded” stand apart in the source; their conditions may differ.
Test system: glucocorticoid-refractory/dependent moderate and severe cGVHD subjects
Test: Clinical study of tablets of the compound of formula I in glucocorticoid-refractory/dependent moderate and severe cGVHD subjects
Type: in vivo, human
Parameters: key to C1 organ score and efficacy: efficacy / C3 organ score and efficacy: efficacy / C6 organ score and efficacy: efficacy / C9 organ score and efficacy: efficacy / C12 organ score and efficacy: efficacy: Complete response (CR): all reversible clinical symptoms of cGVHD were completely alleviated; Partial response (PR): there was improvement in at least one organ or site, but no improvement in all other organs or sites; Stable disease (SD): cGVHD clinical performance was not worsened compared to baseline; Disease progression (PD): any one organ or site was worsened
Experimental: As used herein, 2014 NIH cGVHD meeting consensus criteria was used for clinical diagnosis, disease grading, and evaluation of disease status or effectiveness.
As used herein, the severity of adverse events was determined using the NCI-CTC AE 5.0 criteria.
The subjects of the study were glucocorticoid-refractory/dependent moderate and severe cGVHD subjects. The safety and the tolerability of the tablets of the compound of formula I in the glucocorticoid-refractory/dependent moderate and severe cGVHD subjects were evaluated, and the efficacy and the safety of the tablets of the compound of formula I in the glucocorticoid-refractory/dependent moderate and severe cGVHD subjects were further evaluated.
Method of administration: orally administered twice daily at fasting, with 28 consecutive days of administration as one treatment cycle.
Drug: the tablets of the compound of formula I with 5 mg or 20 mg of the active ingredient, the compound of formula I being its stereoisomer, a compound of formula II
During the study, the investigator would evaluate the cGVHD activity through NIH consensus on cGVHD to define the response effect and make a record accordingly.
Complete response (CR): all reversible clinical symptoms of cGVHD were completely alleviated. Irreversible clinical manifestations would be defined by NIH consensus criteria.
Partial response (PR): there was improvement in at least one organ or site, but no improvement in all other organs or sites.
Stable disease (SD): cGVHD clinical performance was not worsened compared to baseline.
Disease progression (PD): any one organ or site was worsened. In addition, the emergence of new clinical manifestations of cGVHD was also counted as progression.
Objective response rate (ORR): refers to the percentage of subjects in complete response (CR) or partial response (PR) as determined by the investigator according to NIH cGVHD response assessment.
Best objective response rate (ORR): refers to the percentage of subjects whose best response was complete response (CR) or partial response (PR) as determined by the investigator according to NIH cGVHD response assessment.

[1] = 10 mg bid oral, cycle C1, individual subjects
[2] = 10 mg bid oral, cycle C1, individual subjects 1-4
[3] = 10 mg bid oral, cycle C3, individual subjects
[4] = 10 mg bid oral, cycle C3, individual subjects 1-4
[5] = 10 mg bid oral, cycle C6, individual subjects
[6] = 10 mg bid oral, cycle C6, individual subjects 1-4
[7] = 10 mg bid oral, cycle C9, individual subjects
[8] = 10 mg bid oral, cycle C9, individual subjects 1-4
[9] = 10 mg bid oral, cycle C12, individual subjects
[10] = 10 mg bid oral, cycle C12, individual subjects 1-2
[11] = 15 mg bid oral, cycle C1, individual subjects
[12] = 15 mg bid oral, cycle C1, individual subjects 5-8
[13] = 15 mg bid oral, cycle C3, individual subjects
[14] = 15 mg bid oral, cycle C3, individual subjects 5-8
[15] = 15 mg bid oral, cycle C6, individual subjects
[16] = 15 mg bid oral, cycle C6, individual subjects 5-8
[17] = 15 mg bid oral, cycle C9, subject 5
[18] = of the patients evaluated in Table 2, 10 or 15 mg bid

N#CC[C@H](C1CCCC1)n1cc(-c2ncnc3[nH]ccc23)c(N)n1 [compound of formula I]
C1 organ score: esophagus [1]: 1 point for points | C1 organ score: eye [1]: skin, 1 point points (2×) and 1 point for eye, points (2×) | C1 organ score: joint [1]: 1 point for points and 1 points | C1 organ score: lung [1]: 3 points for (2×) and 0 points for | C1 organ score: lung, percentage in parentheses [1]: lung (34.4%), and lung (81.8%), and 25% | C1 organ score: oral cavity [1]: 1 point for points | C1 organ score: skin [1]: 1 point for points and 3 points for | C1 organ score: upper digestive tract [1]: 1 point for points | C1 organ score and efficacy: comprehensive score [2]: score 6;; also recorded: score 1;; also recorded: score 2; | C1 organ score and efficacy: efficacy [2]: efficacy: PR | C3 organ score: esophagus [3]: 1 point for points | C3 organ score: eye [3]: 1 point for eye, points | C3 organ score: joint [3]: 1 point for points and 1 points | C3 organ score: joint fascia [3]: 2 points for | C3 organ score: lung [3]: 0 points for | C3 organ score: lung, percentage in parentheses [3]: lung (31%), and lung (81.0%), and 28.1% | C3 organ score: skin [3]: 1 point for points | C3 organ score: upper digestive tract [3]: 0 points for | C3 organ score and efficacy: comprehensive score [4]: score 5;; also recorded: score 1; | C3 organ score and efficacy: efficacy [4]: efficacy: PR | C6 organ score: esophagus [5]: 1 point for points | C6 organ score: eye [5]: 1 point for eye, points | C6 organ score: joint [5]: 1 point for points and 1 points | C6 organ score: joint fascia [5]: 2 points for | C6 organ score: lung [5]: 3 points for (2×) and 0 points for | C6 organ score: lung, percentage in parentheses [5]: lung (33%), and lung (80%), and 25.0% | C6 organ score: skin [5]: 1 point for points and 2 points for | C6 organ score: upper digestive tract [5]: 0 points for | C6 organ score and efficacy: comprehensive score [6]: score 5;; also recorded: score 1; | C6 organ score and efficacy: efficacy [6]: efficacy: PR | C9 organ score: esophagus [7]: 1 point for points and 0 points for | C9 organ score: eye [7]: skin, 0 points (2×) and 1 point for eye, points (2×) | C9 organ score: joint [7]: 1 point for points and 1 points | C9 organ score: lung [7]: 3 points for (2×) and 0 points for | C9 organ score: lung, percentage in parentheses [7]: lung (35.1%), and 26.6% | C9 organ score: skin [7]: 0 points for | C9 organ score: upper digestive tract [7]: 0 points for | C9 organ score and efficacy: comprehensive score [8]: score 5;; also recorded: score 0;; also recorded: score 1; | C9 organ score and efficacy: efficacy [8]: efficacy: PR; also recorded: efficacy: CR | C12 organ score: esophagus [9]: 1 point for points | C12 organ score: eye [9]: skin, 0 points | C12 organ score: joint fascia [9]: 2 points for | C12 organ score: lung [9]: 3 points for | C12 organ score: lung, percentage in parentheses [9]: lung (35.1%), | C12 organ score: skin [9]: 0 points for | C12 organ score: upper digestive tract [9]: 0 points for | C12 organ score and efficacy: comprehensive score [10]: score 5;; also recorded: score 0; | C12 organ score and efficacy: efficacy [10]: efficacy: PR; also recorded: efficacy: CR | C1 organ score: esophagus [11]: 0 points for | C1 organ score: eye [11]: skin, 1 point points; also recorded: skin, 2 points | C1 organ score: joint fascia [11]: 1 points and 1 point for points | C1 organ score: lower digestive tract [11]: 1 point for points | C1 organ score: lung [11]: tract, 3 points and 3 points for | C1 organ score: lung, percentage in parentheses [11]: 20.5% and lung (28.7%), and lung (55%), | C1 organ score: skin [11]: 1 point for points and 3 points for | C1 organ score and efficacy: comprehensive score [12]: score 8;; also recorded: score 6;; also recorded: score 3;; also recorded: score 7; | C1 organ score and efficacy: efficacy [12]: efficacy: PR; also recorded: efficacy: SD | C3 organ score: esophagus [13]: 0 points for | C3 organ score: joint fascia [13]: 1 points and 1 point for points and 2 points for | C3 organ score: lower digestive tract [13]: 1 point for points | C3 organ score: lung [13]: tract, 3 points | C3 organ score: lung, percentage in parentheses [13]: 17% and lung (27.8%), and lung (55%), | C3 organ score: skin [13]: 1 point for points | C3 organ score and efficacy: comprehensive score [14]: score 8;; also recorded: score 5;; also recorded: score 2;; also recorded: score 7; | C3 organ score and efficacy: efficacy [14]: efficacy: PR; also recorded: efficacy: SD | C6 organ score: esophagus [15]: 0 points for and 1 point for points | C6 organ score: joint fascia [15]: 1 points and 0 points for and 2 points for | C6 organ score: lower digestive tract [15]: 1 point for points | C6 organ score: lung [15]: tract, 3 points and 3 points for and 2 points for | C6 organ score: lung, percentage in parentheses [15]: 15.9% and lung (28.4%), and lung (52.7%), | C6 organ score: skin [15]: 2 points for (2×) and 1 point for points (2×) | C6 organ score and efficacy: comprehensive score [16]: score 8;; also recorded: score 4;; also recorded: score 2;; also recorded: score 6; | C6 organ score and efficacy: efficacy [16]: efficacy: PR | C9 organ score and efficacy: comprehensive score [17]: score 6; | C9 organ score and efficacy: efficacy [17]: efficacy: PR | C9 organ score: eye [17]: skin, 2 points | C9 organ score: joint fascia [17]: 0 points | C9 organ score: lower digestive tract [17]: 0 points for | C9 organ score: lung [17]: tract, 3 points | C9 organ score: lung, percentage in parentheses [17]: 17.6% | C9 organ score: skin [17]: 0 points for | patients in complete response (CR) [18]: 1 patient | patients in partial response (PR) [18]: 7 patients | clinical benefit in the treatment of chronic graft-versus-host disease (patients evaluated in Table 2): clinical benefits | tolerability and safety (tablets, cGVHD subjects): good tolerability and safety

Reference: US20240285635A1, “USE OF PYRROLOPYRIMIDINE COMPOUND AND PHARMACEUTICAL COMPOSITION THEREOF FOR TREATING CHRONIC GRAFT VERSUS HOST DISEASE” (CHIA TAI TIANQING PHARMACEUTICAL GROUP CO., LTD., priority 2021, published 2024)
